Structures can show the parent of a compound that is named as a salt. Where two headings read alike, the source gives them in different places.

This is an account of results in patent publication US20170182070A1, “Controlled Release Doxycycline” (Mayne Pharma International Pty Ltd., priority 2014, published 2017).

The conditions of data set [1]: cited from earlier work.
Data set [2] is described as follows: In vitro dissolution/release profile, USP <711> Apparatus 1 (baskets). In kind it is physicochemical. The procedure: For the purposes of in vitro testing, a release or dissolution profile may be determined at pH 1.2 using a 0.06 N hydrochloric acid solution, at pH 4.5 using a phosphate buffer using USP <711> test conditions, and at pH 5.0 using a buffer using USP <711> test conditions. Such test conditions can be carried out according to USP <711> dissolution conditions using Apparatus 1 (baskets) in 900 mL of media with stirring at 50 RPM. The in vitro release of the pellets was tested using USP XXIV 2000—Apparatus 1 (baskets). See, e.g., Riaz Uddin, Nadia Saffoon, and Kumar Bishwajit Sutradhar, “Dissolution and Dissolution Apparatus: A Review,” Int. J. Cur. Biomed. Phar. Res., 2011, Vol. 1(4), pgs. 201-207. The acid environment dissolution profile of pellet A and B's formulation can be seen in FIG. 1. The dissolution profile of pellet A and B formulations at elevated pH can be seen in FIG. 2.

A short description of data set [3]: Physicochemical properties of doxycycline forms.
Data set [4] in a line: Population pharmacokinetic model of doxycycline plasma concentrations, pooled phase 1 data (Example 8). The data set is classed as in vivo, human. The procedure:
Pharmacokinetic data were available from eight phase 1 clinical trials conducted by Mayne Pharma International. These studies assessed doxycycline plasma concentrations following oral administration of either a 100 mg conventional release doxycycline hyclate capsule, a 75/100/150 or 200 mg Doryx® Delayed-Release tablet or a 120 mg Doryx MPC® Delayed-Release tablet in healthy subjects. For the remainder of the Specification's Example 8, conventional release doxycycline hyclate capsules will be referred to as Doryx capsules, the Doryx® Delayed-Release tablets will be referred to as Doryx tablets, and Doryx MPC® Delayed-Release tablets (formulation code MP336) will be referred to as Doryx MPC.
The available phase 1 clinical trials included six single dose two treatment period studies assessing the influence of formulation or the fed/fasted state on doxycycline concentrations. Two trials were multi-dose studies; with one a single treatment period study and the other a two treatment period study assessing doxycycline plasma concentrations following Doryx capsule or Doryx tablet administration. All studies were conducted in the United States. […] The design and dosing schedules are summarized in […].3. The available studies were assigned a local identifier during model development (10, 20, 30, 40, 50, 60, 70, and 80), as indicated in […].3, and will be referred to by these numbers for the remainder of the Specification.
Studies 10, 20, 30, 50, 60 and 80 were single-dose studies and plasma samples were acquired at nominal times approximate to 0, 0.25, 0.5, 1, 1.5, 2, 2.5, 3, 3.5, 4, 6, 8, 10, 12, 16, 24, 36, 48, 72 and 96 hours after the dose on day 1 of that period. Study 40 was a single treatment period multi-dose study, where participants were dosed 7 times at 24 hour intervals and plasma samples were collected at nominal times of 0, 0.25, 0.5, 1, 1.5, 2, 2.5, 3, 4, 6, 8, 10, 12, 16, 24, 144, 144.25, 144.5, 145, 145.5, 146, 146.5, 147, 148, 150, 152, 156, 160, 168, 180, 192, 216 and 240 hours after the dose on day 1. Study 70 was a two treatment period multi-dose study, where doses were given at 0, 72, 96, 120, 144 and 168 hours after the start of treatment, and plasma samples were collected at nominal times of 0, 0.25, 0.5, 1, 1.5, 2, 2.5, 3, 4, 6, 8, 10, 12, 16, 24, 36, 48, 72, 96, 120, 144, 168, 168.25, 168.5, 169, 169.5, 170, 170.5, 171, 172, 174, 176, 180, 184, 192, 204, 216 and 240 hours after the dose on day 1. Deviations between nominal sampling times and actual sample times were recorded, and the actual times were used during model development. Covariates describing fed status, formulation, sex, age, race, weight, body mass index (BMI), smoking status and study number were available for each individual.
Doxycycline plasma concentrations were measured using validated high performance liquid chromatographic methods, with the lower limits of quantification (LLOQ) of the assays indicated in […].3. All subjects with evaluable pharmacokinetic data were included in the analysis. All studies were conducted according to the International Conference of Harmonisation (ICH) guidelines for good clinical practice, the Declaration of Helsinki on the ethical conduct of medical research, and applicable regulatory requirements. Each subject signed and dated a written informed consent before study participation.
The base model was developed in a step-wise manner. Pharmacokinetic models were coded using the ADVAN5 subroutines of NONMEM. Linear kinetic models with 1, 2 and 3 compartments were evaluated, with absorption models including simple first-order absorption and “transit compartment” models with up to 5 absorption transit compartments assessed. The parameter KTR (transit absorption rate) was used to describe the first-order movement through these absorption compartments. The First Order Conditional Estimation (FOCE) method was used to fit models. […]

Data set [5] has as its system Plasmodium falciparum. The following applies: cited from earlier work.
For data set [6] the following is noted: cited from earlier work. The source holds these as a separate data set.

For `CC1c2cccc(O)c2C(=O)C2=C(O)[C@]3(O)C(=O)C(C(N)=O)=C(O)[C@@H](N(C)C)[C@@H]3[C@@H](O)[C@@H]21` (stereo partly drawn) [Doxycycline hyclate, [4S(4aR,5S,5aR,6R,12aS)]-4-(dimethylamino)-1,4,4a,5,5a,6,11,12a-octahydro-3,5,10,12,12a-pentahydroxy-6-methyl-1,11-deoxonapthtacene-2-carboxamide monohydrochloride, compound with ethyl alcohol (2:1), monohydrate], the solubility entry in data set [1] is “soluble in water and in solutions of alkali hydroxides and carbonates”.

Regarding `C[C@H]1c2cccc(O)c2C(=O)C2=C(O)[C@]3(O)C(=O)C(C(N)=O)=C(O)[C@@H](N(C)C)[C@@H]3[C@@H](O)[C@@H]21` [doxycycline monohydrate salt], the release rates overall result in data set [2] (FIG. 5) is “low release rates overall”. The release result in data set [2] (acidic conditions (FIG. 5)) is given as “releases readily”. Also, the figures for the solubility result in data set [3] (lower pH values (FIG. 5)) and in data set [3] (pH above 3 (FIG. 5)) were “very soluble” and “not very soluble”, respectively.

`C[C@H]1c2cccc(O)c2C(=O)C2=C(O)[C@]3(O)C(=O)C(C(N)=O)=C(O)[C@@H](N(C)C)[C@@H]3[C@@H](O)[C@@H]21` [doxycycline, (4S,4aR,5S,5aR,6R,12aS)-4-(dimethylamino)-3,5,10,12,12a-pentahydroxy-6-methyl-1,11-dioxo-1,4,4a,5,5a,6,11,12a-octahydrotetracene-2-carboxamide]: in data set [4] (final model parameter estimate), the “CL, Clearance” value is 4.63 L/h/70 kg FFM; the “CLP1, Intercompartmental clearance” value was 11.3 L/h/70 kg FFM; the “KTR, Transit compartment rate constant” value was 2 h⁻¹; the “V, Central distribution volume” value is listed as 55.2 L/70 kg FFM. For the same molecule, the “VP1, Peripheral distribution volume” value in data set [4] (final model parameter estimate) is 49.8 L/70 kg FFM. In addition, the “FTLAG2, lag on KTR (absorption) for the fed status” value in data set [4] (final model, formulation non-specific) was 0.203 h. In addition, the Fed-state decrease in relative bioavailability in data set [4] (human, plasma, oral, final model parameter estimate, read-out: COVFEDF, Effect of food on relative bioavailability) was 10.5%. Moreover, the “female sex increase in clearance” value in data set [4] (in vivo) amounted to 14.4%. The “fed status decrease in relative bioavailability (F)” value in data set [4] (irrespective of formulation) came out at 10.5%. For the same molecule, the lipid solubility entry in data set [1] is “high degree of lipid solubility”. Further, in data set [5], the “activity against asexual erythrocytic forms” value is listed as “active” and the activity against gametocytes entry is recorded as “not against the gametocytes”. The peak serum level in data set [6] (200 mg dose, at 2 hours, normal adult volunteers) was 2.6 µg/mL. In addition, the serum level in data set [6] (200 mg dose, at 24 hours) is 1450 ng/mL. Moreover, the “absorption after oral administration” value in data set [6] (in vivo, po) is listed as “virtually completely absorbed”. In data set [6] (in vivo), the half-life entry is “approximately 18 hours”. For the same molecule, the “excretion by the kidney” value in data set [6] (normal function (creatinine clearance about 75 mL/min)) is reported as “about 40 %/72 hours”. Also, the “excretion by the kidney” value in data set [6] (severe renal insufficiency (creatinine clearance below 10 mL/min)) is given as 1-5 %/72 hours.
